Structures can show the parent of a compound that is named as a salt. Some results are limits rather than exact numbers.

The subject of data set [1] is blood-flow to the myocardium. Nature of the data set: arterial coronary blood-flow (blood-flow to the myocardium). The class given is in vivo, dog. The note with it: 10 mg/kg intravenous. As to the method: (1) The capability of Compound No. 7 of increasing the blood-flow to the myocardium and thus stepping up the supply of oxygen to this muscle was determined in accordance with the technique described by R. CHARLIER and J. BAUTHIER in Arzneimittel Forschung "Drug Research" 23, 1305-1311 (1973).
Seven experiments were carried out on seven dogs, using a intravenous injection of 10 mg/kg of Compound No. 7. […] The increase in blood-flow was regular and the return to the control values took place progressively within twenty minutes.

The nature of data set [2]: acute toxicity in mice. The data set is classed as in vivo. The note with it: mouse, in vivo, single administration, 12 days observation. As to the method: (§1) Finally, acute toxicity tests were carried out on rats and mice with Compound No. 7 and on rats with Compounds Nos. 13 and 14, the animals being kept under observation for 12 days following one single administration.

Data set [3] relates to mice. Nature of the data set: acute toxicity in mice. The class given is in vivo. Particulars: single administration, 12 days observation. As to the method:
as §1

Data set [4] has as its system oxygen consumption of the myocardium. Nature of the data set: oxygen consumption of the myocardium (rate-pressure product). The data set is classed as in vivo. The note with it: anaesthetized dog, 10 mg/kg intravenous, 100 before administration. The protocol: This comparative trial aimed at determining the respective capabilities of the two substances to reduce the oxygen consumption of the myocardium. This property was measured by the indirect method known as the "rate-pressure product" which is a widely used and accurate haemodynamic index of myocardial oxygen consumption.
This method requires two cardiovascular parameters to be measured simultaneously, namely the mean aortic systolic blood-pressure and the heart-rate.
The "rate-pressure product" is obtained by multiplying the number of heart beats per minute by the mean aortic systolic blood-pressure. This provides an index of the total amount of oxygen used by the myocardium over a period of one minute. As it thus represents an accurate indication of the oxygen consumption of the myocardium, any lowering of the "rate-pressure product" indicates a corresponding drop in the oxygen consumption of the myocardium.
These tests were carried out on dogs which had been previously anaesthetized with sodium pentobarbital (30 mg/kg by intravenous route).
In both cases, the injection of 10 mg/kg took 2 minutes to administer.

Data set [5] concerns cardiac output. Nature of the data set: cardiac output. The data set is classed as in vivo. The note with it: dog, 10 mg/kg intravenous. As to the method:
(§2) The same experimental conditions as above were observed and the following parameters were measured: […]

The subject of data set [6] is cardiac frequency. The data set can be described thus: cardiac frequency, 60 minutes experiment. The class given is in vivo. Particulars: dog, 10 mg/kg intravenous, during 60 minutes. The protocol: as §2
Data set [7] deals with rats. The data set can be described thus: acute toxicity in rats. The data set is classed as in vivo. Particulars: single administration, 12 days observation. The protocol:
as §1

Data set [8] in a line: acute toxicity in rats. The note with it: rat, in vivo, single administration, 12 days observation. The class given is in vivo. As to the method: as §1
Data set [9] relates to stroke volume. The data set can be described thus: stroke volume (cardiac output divided by heart-beats per minute). The class given is in vivo. Particulars: dog, 10 mg/kg intravenous; for Stroke Volume: initial value 100%. The protocol: The same experimental conditions as above were observed and the following parameters were measured:
Thus, in order to determine the effect of any particular substance on stroke volume, it is sufficient to divide cardiac output by the number of heart-beats per minute.

In data set [10] the test system is myocardium. Particulars: background; cited from earlier work.

`CCCCc1oc2ccccc2c1C(=O)c1ccc(N(CCN(C)C)S(=O)(=O)c2ccc(C)cc2)cc1` [Compound 7, 2-n-butyl-3-[N-(2-dimethylaminoethyl)-N-(4-methyl-benzenesulfonyl)-4-amino-benzoyl]-benzofuran]: the “return of blood-flow to the control values” in data set [1] (dog, hydrochloride) is given as “twenty”. Besides, the “supply of oxygen to the myocardium” value in data set [1] (dog, conclusion in words) is recorded as “increases to a very marked degree the supply of oxygen to the myocardium”. For the same compound, the “maximal increase in blood-flow to the myocardium” value in data set [1] (seven dogs, after 3 minutes, hydrochloride) was “about 94%”. Moreover, the LD50 (as a rule, the dose at which mortality reaches 50%) at 288 h amounted to 275 mg/kg in data set [2] (ip, intraperitoneal); 2100 mg/kg in [2] (po, intragastric); 600 mg/kg in data set [8] (ip, intraperitoneal); 1600 mg/kg in data set [8] (po, intragastric). Also, the LD0 in data set [3] (intragastric) stood at 550 mg/kg; in [3] (intraperitoneal), 50 mg/kg; in [7] (intragastric) it was 800 mg/kg; in data set [7] (intraperitoneal), 160 mg/kg. Further, the LD95 in data set [3] (intragastric) was determined as 5000 mg/kg; in data set [3] (intraperitoneal), 900 mg/kg; in data set [7] (intragastric) it was 2400 mg/kg; in data set [7] (intraperitoneal), 1400 mg/kg. Moreover, the “Oxygen Consumption (rate-pressure product)” value (shortened to “Oxygen Consumption”) turned out to be 54.4 in data set [4] (2.5 minutes after); 57.8 in data set [4] (5 minutes after); 63.5 in data set [4] (10 minutes after); 64.8 in [4] (15 minutes after); 64.8 in data set [4] (20 minutes after); 65.2 in data set [4] (25 minutes after). Moreover, the “Oxygen Consumption” value in data set [4] (30 minutes after) is 65.6; in [4] (35 minutes after), 66.0; in data set [4] (40 minutes after), 66.8; in [4] (45 minutes after) it was 67.2; in data set [4] (50 minutes after) it was 67.6; in data set [4] (55 minutes after) it was 68.9. In addition, in [4] (60 minutes after), the “Oxygen Consumption” value came out at 68.9. Further, the “return of cardiac output to the control value” in data set [5] is no more than 20 min. In addition, the “increase in cardiac output” value in [5] (after 2.5 minutes) is on record as 70%; in data set [5] (after 5 minutes), 50%. Besides, the cardiac frequency entry in [6] is listed as “dropped to a highly significant degree during 60 minutes”. Besides, the “increase in stroke volume” value in data set [9] (during the first 5 minutes) is given as “above 100%”. Besides, the “Stroke Volume” value turned out to be 213% in [9] (2.5 min); 200% in data set [9] (5 min); 172% in data set [9] (10 min); 152% in [9] (15 min); 143% in data set [9] (20 min); 136% in data set [9] (25 min). Further, the “Stroke Volume” value in data set [9] (30 min) turned out to be 137%; in data set [9] (35 min), 138%; in data set [9] (40 min), 127%; in data set [9] (45 min) it was 127%; in [9] (50 min), 130%; in data set [9] (55 min), 120%. In data set [9] (60 min), the “Stroke Volume” value stood at 117%. Further, in data set [9] (conclusion in words), the “performance of the cardiac muscle” value was “does not depress the performance of the cardiac muscle, and even stimulates this extremely important factor of cardiac functioning”.
Turning to `CCCCc1oc2ccccc2c1C(=O)c1ccc(N(CCCN(CCC)CCC)S(=O)(=O)c2ccc([N+](=O)[O-])cc2)cc1` [Compound 13, 2-n-butyl-3-[N-(3-di-n-propylaminopropyl)-N-(4-nitro-benzenesulfonyl)-4-amino-benzoyl]-benzofuran], in [7] (intraperitoneal), the LD0 is listed as 180 mg/kg and the LD95 was 3000 mg/kg. Moreover, the LD50 at 288 h in data set [8] (ip, intraperitoneal) was 1000 mg/kg.
On the same counts, the results for `CCCCc1oc2ccccc2c1C(=O)c1ccc(N(CCCN(CCCC)CCCC)S(=O)(=O)c2ccc(OC)cc2)cc1` [Compound 14, 2-n-butyl-3-[N-(3-di-n-butylaminopropyl)-N-(4-methoxy-benzenesulfonyl)-4-amino-benzoyl]-benzofuran] are 200 mg/kg, 3000 mg/kg and 1000 mg/kg.
As to `C1CCC(C(CC2CCCCN2)C2CCCCC2)CC1` (stereo not shown) [perhexiline maleate], in data set [10], the anti-adrenergic effect result is given as “does not possess any anti-adrenergic properties”, the cardiac frequency entry was “diminishing cardiac frequency”, the cardiac functioning entry is “does not appear to exert a depressant effect upon cardiac functioning” and the “oxygen requirements of the myocardium” value is given as “reducing the oxygen requirements of the myocardium”. In addition, the “supply of oxygen to the myocardium” value in [10] is recorded as “increasing the supply of oxygen to the myocardium”.
Turning to `OCCN(CCO)c1nc(N2CCCCC2)c2nc(N(CCO)CCO)nc(N3CCCCC3)c2n1` [dipyridamole], in [10], the anti-adrenergic effect entry is “do not inhibit the cardio-vascular reactions to adrenergic stimulants”, the cardiac functioning entry is “do not depress the cardiac function”, the “oxygen requirements of the myocardium” value is on record as “do not reduce the oxygen requirements of the myocardium” and the “supply of oxygen to the myocardium” value is reported as “increase the supply of oxygen to the myocardium”.
Turning to `CC(Cc1ccccc1)NCCC(c1ccccc1)c1ccccc1` (stereo not shown) [prenylamine], in data set [10], the anti-adrenergic effect result was “do not inhibit the cardio-vascular reactions to adrenergic stimulants”, the cardiac functioning entry is “do not depress the cardiac function”, the “oxygen requirements of the myocardium” value is on record as “do not reduce the oxygen requirements of the myocardium” and the “supply of oxygen to the myocardium” value is given as “increase the supply of oxygen to the myocardium”.
Regarding `CC(=O)Nc1ccc(OCC(O)CNC(C)C)cc1` (stereo not shown) [practolol], in data set [10], the anti-adrenergic effect entry is recorded as “exert an anti-adrenergic effect”, the cardiac frequency result is given as “considerably reduce cardiac frequency”, the cardiac functioning entry is given as “depress cardiac functioning” and the “oxygen requirements of the myocardium” value is listed as “diminish the oxygen requirements of the myocardium”. The “supply of oxygen to the myocardium” value in data set [10] is “lower the supply of oxygen to the myocardium”.
With `CC(C)NCC(O)COc1cccc2ccccc12` (racemic) [prapranolol], in data set [10], the anti-adrenergic effect entry is recorded as “exert an anti-adrenergic effect”, the cardiac frequency result is “considerably reduce cardiac frequency”, the cardiac functioning result was “depress cardiac functioning” and the “oxygen requirements of the myocardium” value is on record as “diminish the oxygen requirements of the myocardium”. Also, the “supply of oxygen to the myocardium” value in data set [10] is given as “lower the supply of oxygen to the myocardium”.

(Values after patent US4117151A, “Therapeutic sulfonamides” (priority 1976, dated 1978).)
